Measurements published in PMC9508125, “The evolutionary advantage of an aromatic clamp in plant family 3 glycoside exo-hydrolases” (Nature Communications, 2022).
Residue numbers refer to the chain shown, from its start.

How the values were obtained:
Assay in all cases: Relative rates of hydrolysis of poly-, oligosaccharides and aryl-glycosides
Type in all cases: biochemical
[1] = biological target: T1, HvExoI W434Y mutant (Hordeum vulgare, UniProt Q9XEI3, W459Y); settings: substance is the substrate, nd = activity not detected
T1 sequence (Q9XEI3 26-630 W459Y): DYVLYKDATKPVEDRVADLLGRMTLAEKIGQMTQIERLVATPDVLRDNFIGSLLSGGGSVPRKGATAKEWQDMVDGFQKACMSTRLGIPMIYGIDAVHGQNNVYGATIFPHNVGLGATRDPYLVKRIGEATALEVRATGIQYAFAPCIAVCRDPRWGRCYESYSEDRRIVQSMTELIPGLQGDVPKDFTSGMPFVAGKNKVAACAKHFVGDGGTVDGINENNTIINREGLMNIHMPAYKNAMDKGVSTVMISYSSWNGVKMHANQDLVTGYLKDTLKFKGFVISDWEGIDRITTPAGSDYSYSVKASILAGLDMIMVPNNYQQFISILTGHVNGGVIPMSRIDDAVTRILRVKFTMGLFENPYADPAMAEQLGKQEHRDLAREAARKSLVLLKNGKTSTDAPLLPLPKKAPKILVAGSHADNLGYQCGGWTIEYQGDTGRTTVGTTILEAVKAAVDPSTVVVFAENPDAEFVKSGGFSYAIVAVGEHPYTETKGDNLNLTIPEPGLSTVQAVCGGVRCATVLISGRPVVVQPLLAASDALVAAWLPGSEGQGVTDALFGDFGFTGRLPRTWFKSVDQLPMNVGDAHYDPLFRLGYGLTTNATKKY
Description: (§1) Dependency of activities of WT and mutant HvExoI on pH (McIlvaine buffers in the pH range of 3.5–8.5 at 30 °C) and temperature (100 mM sodium acetate buffer, pH 5.25, temperature range 0–80 °C, 15 min incubations) were determined using 0.2% (w/v) 4NP-Glc[21],[59]. Relative rates of hydrolysis of β-linked poly-, oligosaccharides, and aryl-glucosides were determined using near-homogenous HvExoI at 50 pmoles. […] Kinetic parameters were calculated from the analyses of Michaelis-Menten plots with Grafit 7.0.3[62] and processed by a proportional weighted fit, using nonlinear regression. The relative rates of hydrolysis, kinetic, and inhibition data were rounded to one or two decimal points (Supplementary Tables 2–4).

[2] = biological target: T2, HvExoI W286F mutant (Hordeum vulgare, UniProt Q9XEI3, W311F); settings: substance is the substrate, nd = activity not detected
T2 sequence (Q9XEI3 26-630 W311F): T1 sequence (Q9XEI3 26-630 W459Y) with W286F, Y434W
Description: as §1

[3] = biological target: T3, HvExoI W286F/W434A mutant (Hordeum vulgare, UniProt Q9XEI3, W311F/W459A); settings: substance is the substrate, nd = activity not detected
T3 sequence (Q9XEI3 26-630 W311F/W459A): T1 sequence (Q9XEI3 26-630 W459Y) with W286F, Y434A
Description: as §1

[4] = biological target: WT HvExoI (Hordeum vulgare, UniProt Q9XEI3); settings: substance is the substrate, HvExoI at 50 pmoles, nd = activity not detected
Description: as §1

[5] = biological target: T4, HvExoI W286F/W434F mutant (Hordeum vulgare, UniProt Q9XEI3, W311F/W459F); settings: substance is the substrate, nd = activity not detected
T4 sequence (Q9XEI3 26-630 W311F/W459F): T1 sequence (Q9XEI3 26-630 W459Y) with W286F, Y434F
Description: as §1

Chain of WT HvExoI (Q9XEI3 entry or part of it): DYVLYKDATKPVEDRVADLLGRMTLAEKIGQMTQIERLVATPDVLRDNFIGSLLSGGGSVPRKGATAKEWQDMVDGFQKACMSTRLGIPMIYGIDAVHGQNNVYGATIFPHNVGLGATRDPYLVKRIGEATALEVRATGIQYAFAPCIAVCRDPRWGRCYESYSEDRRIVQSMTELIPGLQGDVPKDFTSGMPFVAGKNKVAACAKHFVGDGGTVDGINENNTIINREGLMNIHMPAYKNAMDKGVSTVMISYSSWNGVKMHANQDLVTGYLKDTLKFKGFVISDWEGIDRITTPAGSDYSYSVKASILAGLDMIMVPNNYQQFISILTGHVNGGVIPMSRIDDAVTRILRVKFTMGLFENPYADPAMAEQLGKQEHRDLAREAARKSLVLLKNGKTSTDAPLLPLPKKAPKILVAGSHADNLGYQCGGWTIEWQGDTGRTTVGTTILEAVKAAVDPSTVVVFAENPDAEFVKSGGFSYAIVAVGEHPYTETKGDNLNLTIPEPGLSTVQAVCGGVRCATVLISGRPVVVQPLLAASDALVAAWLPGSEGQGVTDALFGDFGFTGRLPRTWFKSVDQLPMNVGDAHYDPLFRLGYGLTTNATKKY

Molecule | Activity (relative rate of hydrolysis) [1] | Activity (relative rate of hydrolysis) [2] | Activity (relative rate of hydrolysis) [3] | Activity (relative rate of hydrolysis) [4] | Activity (relative rate of hydrolysis) [5]
OC[C@H]1O[C@@H](O[C@@H]2[C@@H](O)[C@H](O[C@@H]3[C@@H](O)[C@H](O[C@@H]4[C@@H](O)[C@H](O[C@@H]5[C@@H](O)[C@H](O)O[C@H](CO)[C@H]5O)O[C@H](CO)[C@H]4O)O[C@H](CO)[C@H]3O)O[C@H](CO)[C@H]2O)[C@H](O)[C@@H](O)[C@@H]1O [Laminaripentaose] | 1.5 ± 0.1 μmole/min per mg protein | 1.0 ± 0.01 μmole/min per mg protein | 0.2 ± 0.02 μmole/min per mg protein | 11.7 ± 0.5 μmole/min per mg protein | 0.4 ± 0.04 μmole/min per mg protein
OC[C@H]1O[C@@H](O[C@@H]2[C@@H](O)[C@H](O[C@@H]3[C@@H](O)[C@H](O[C@H]4[C@H](O)[C@@H](CO)OC(O)[C@@H]4O)O[C@H](CO)[C@H]3O)O[C@H](CO)[C@H]2O)[C@H](O)[C@@H](O)[C@@H]1O (some centres unmarked) [Laminaritetraose] | 1.3 ± 0.1 μmole/min per mg protein | 1.1 ± 0.1 μmole/min per mg protein | 0.2 ± 0.01 μmole/min per mg protein | 12.3 ± 0.5 μmole/min per mg protein | 0.4 ± 0.04 μmole/min per mg protein
OC[C@H]1O[C@@H](O[C@@H]2[C@@H](O)[C@H](O[C@H]3[C@H](O)[C@@H](CO)OC(O)[C@@H]3O)O[C@H](CO)[C@H]2O)[C@H](O)[C@@H](O)[C@@H]1O (some centres unmarked) [Laminaritriose] | 1.4 ± 0.2 μmole/min per mg protein | 1.3 ± 0.01 μmole/min per mg protein | 0.1 ± 0.002 μmole/min per mg protein | 12.4 ± 0.3 μmole/min per mg protein | 0.5 ± 0.04 μmole/min per mg protein
OC[C@H]1O[C@@H](O[C@H]2C(O)O[C@H](CO)[C@@H](O)[C@@H]2O)[C@H](O)[C@@H](O)[C@@H]1O (some centres unmarked) [Sophorose] | 0.8 ± 0.1 μmole/min per mg protein | 0.6 ± 0.01 μmole/min per mg protein | 0.02 ± 0.001 μmole/min per mg protein | 6.0 ± 0.1 μmole/min per mg protein | 0.3 ± 0.03 μmole/min per mg protein
Cellobiose | 0.1 ± 0.001 μmole/min per mg protein | 0.1 ± 0.01 μmole/min per mg protein | 0.01 ± 0.001 μmole/min per mg protein | 4.6 ± 0.2 μmole/min per mg protein | 0.01 ± 0.001 μmole/min per mg protein
Gentiobiose | 0.1 ± 0.01 μmole/min per mg protein | 0.4 ± 0.03 μmole/min per mg protein | 0.002 ± 0.0002 μmole/min per mg protein | 4.7 ± 0.4 μmole/min per mg protein | 0.01 ± 0.001 μmole/min per mg protein
laminarin | 0.7 ± 0.03 μmole/min per mg protein | 1.1 ± 0.1 μmole/min per mg protein | 0.1 ± 0.003 μmole/min per mg protein | 54.4 ± 0.5 μmole/min per mg protein | 0.2 ± 0.01 μmole/min per mg protein
